# Where a SMILES comes first, the peptide text is derived from it. The star is where a group is joined. Cbz = O=C(OCc1ccccc1)*; CH2F = FC*
# What was measured:
# [1] = system: hair cells of organ of Corti; test: Mitochondrial function and hair cell survival in organ of Corti treated with cisplatin; assay type: cell-based; conditions: cisplatin treatment alone (FIGS. 3B, 3E)
# Excerpt: FIGS. 3A-3F are fluorescent micrographs showing mitochondrial function in hair cells. Cells with healthy and functioning mitochondria stain red and are depicted in 3D, 3E and 3F. The presence of hair cells are shown in green and depicted in 3A, 3B and 3C. FIGS. 3A and 3D represent untreated controls. FIGS. 3B and 3E show an organ of Corti treated with the chemotherapeutic agent cisplatin. […] FIGS. 3C and 3F show an organ of Corti pretreated with an adenovector with bcl2 expression followed by cisplatin treatment.
# inner ear = test: Hearing by auditory brainstem response after round window injection of vector; assay type: in vivo, mouse; conditions: for protection of hearing / prevention of inner ear trauma by caspase inhibitor: larger volumes of fluid (greater than about 10% of total inner ear volume), hydraulic/mechanical injury
# cathepsin B = cathepsin B (Homo sapiens, UniProt P07858); conditions: in vitro and in tissue culture cells at concentrations used to demonstrate the involvement of caspases; cited from earlier work
SMILES,hair cells and mitochondrial function in organ of Corti [1],protection of hearing / prevention of inner ear trauma by caspase inhibitor (inner ear),protection of hearing / prevention of inner ear trauma by caspase inhibitor (inner ear; listed as pancaspase inhibitor),"hearing loss with pancaspase inhibitor added to the vector composition (inner ear; round window, injection volumes up to 3 μL, zVAD-FMK 1 mM, 2 μL with 1 μL vector)",cathepsin B activity inhibition (cathepsin B)
N.N.[Cl][Pt][Cl] [cisplatin],loss of cells and loss of mitochondrial function,,,,
"CC(C)[C@H](NC(=O)OCc1ccccc1)C(=O)N[C@@H](C)C(=O)N[C@@H](CC(=O)O)C(=O)CF [zVAD-FMK, N-benzyloxycarbonyl-Val-Ala-Asp-fluoromethylketone] (Cbz-Val-Ala-Asp-CH2F)",,can prevent inner ear trauma,protected hearing,only minimal loss of hearing,inhibit efficiently cathepsin B activity
